Data set [1] has as its system BMMC. In words: Anti-osteoporosis activity in C57BL/6 mouse BMM cells assessed as inhibition of M-CSF/RANKL-induced osteoclastogenesis by measuring reduction in multinucleated TRAP+ cells incubated for 5 days with media replenishment for every 48 hrs measured by TRAP-staining based analysis. It is filed as functional, cell-based. The note with it: C57BL/6, BMMC.
The nature of data set [2]: Cytotoxicity against C57BL/6 mouse BMM cells assessed as reduction in cell viability measured after 48 hrs in presence of M-CSF by CCK8 assay. The note with it: BMM cells (bone marrow-derived). Format: cell-based, BMMC.
Data set [3] has as its system BMMC. In words: Anti-osteoporosis activity in C57BL/6 mouse BMM cells assessed as inhibition of M-CSF/RANKL-induced bone resorption by measuring suppression of reabsorbing pits formation after 48 hrs by hydroxyapatite assay using Leica inverted microscope. Particulars: dose 1-10 µM. Format: functional, cell-based.
The subject of data set [4] is Mus musculus. In words: Antiosteoporotic activity against OVX-induced bone loss C57BL/6 mouse model assessed as increase in bone volume/total bone volume in femoral metaphysis at 10 mg/kg, po QD for 4 weeks. It is filed as functional, organism-based. The note with it: dose 10.0 mg/kg/day.
Data set [5] relates to Mus musculus. In words: Antiosteoporotic activity against OVX-induced bone loss C57BL/6 mouse model assessed as decrease in trabecular spacing in femoral metaphysis at 10 mg/kg, po QD for 4 weeks. It is filed as functional, organism-based. Particulars: dose 10.0 mg/kg/day.
Data set [6] relates to Mus musculus. In words: Antiosteoporotic activity against OVX-induced bone loss C57BL/6 mouse model assessed as increase in trabecular number in femoral metaphysis at 10 mg/kg, po QD for 4 weeks. Format: functional, organism-based. Particulars: dose 10.0 mg/kg/day.
Data set [7] deals with Mus musculus. In words: Antiosteoporotic activity against OVX-induced bone loss C57BL/6 mouse model assessed as decrease in ACP5 level in serum at 10 mg/kg, po QD for 4 weeks. It is filed as functional, organism-based. The note with it: dose 10.0 mg/kg/day.
In data set [8] the test system is Mus musculus. In words: Antiosteoporotic activity against OVX-induced bone loss C57BL/6 mouse model assessed as increase in trabecular thickness in femoral metaphysis at 10 mg/kg, po QD for 4 weeks. Format: functional, organism-based. Particulars: dose 10.0 mg/kg/day.

The source made the active and inactive calls. The rule behind the calls is not given here.

With `C=C1CC[C@H]2[C@@](C)(CC[C@@H](O)[C@@]2(C)C(=O)NCCc2ccc(OC)cc2)[C@@H]1/C=C/C1=CCOC1=O`, in data set [1], the IC50 (usually the concentration at which inhibition is half-maximal) was above 30 µM.
On to `C=C1CC[C@@H]2[C@](C)(CNCc3ccc(Br)cc3)[C@H](O)CC[C@@]2(C)[C@@H]1/C=C/C1=CCOC1=O`, for which the IC50 in data set [1] amounted to 0.43 µM.
Same read-out and setting: the same measure for `C=C1CC[C@@H]2[C@](C)(CNCc3ccc(OC)c(OC)c3)[C@H](O)CC[C@@]2(C)[C@@H]1/C=C/C1=CCOC1=O`: 3.74 µM.
On the same count and under the same terms, under `C=C1CC[C@@H]2[C@](C)(CNCc3ccc(C)cc3)[C@H](O)CC[C@@]2(C)[C@@H]1/C=C/C1=CCOC1=O` stands 0.74 µM.
Still for that read-out and setting: the same measure for `C=C1CC[C@@H]2[C@](C)(CNCCc3ccc(C)cc3)[C@H](O)CC[C@@]2(C)[C@@H]1/C=C/C1=CCOC1=O`: 0.87 µM.
Regarding `C=C1CC[C@@H]2[C@](C)(CO)[C@H](O)CC[C@@]2(C)[C@@H]1C/C=C1\C=COC1=O`, the CC50 (as a rule, the concentration at which the toxic effect on the cells reaches its halfway point) at 48 h in data set [2] turned out to be 20.6 µM. In addition, the IC50 in data set [1] was determined as 2.77 µM.
`C=C1CC[C@@H]2[C@](C)(CO)[C@H](O)CC[C@@]2(C)[C@@H]1/C=C/C1=CCOC1=O`: in data set [2], the CC50 at 48 h is above 30 µM. For the same compound, the IC50 in data set [1] amounted to 8.34 µM.
Turning to `C=C1CC[C@@H]2[C@](C)(CNCc3ccncc3)[C@H](O)CC[C@@]2(C)[C@@H]1/C=C/C1=CCOC1=O`, the IC50 in data set [1] came to 2.03 µM.
Same read-out and setting: under `C=C1CC[C@@H]2[C@](C)(CNCc3ccccc3)[C@H](O)CC[C@@]2(C)[C@@H]1/C=C/C1=CCOC1=O` stands 0.96 µM.
Regarding `C=C1CC[C@@H]2[C@](C)(CNCc3ccco3)[C@H](O)CC[C@@]2(C)[C@@H]1/C=C/C1=CCOC1=O`, the IC50 in data set [1] was determined as 1.83 µM.
Still for that read-out and setting: under `C=C1CC[C@H]2[C@@](C)(CC[C@@H](O)[C@@]2(C)C(=O)NCc2ccccc2)[C@@H]1/C=C/C1=CCOC1=O` stands 19.4 µM.
On the same count and under the same terms, under `C=C1CC[C@H]2[C@@](C)(CC[C@@H](O)[C@@]2(C)C(=O)NCc2ccc(Br)cc2)[C@@H]1/C=C/C1=CCOC1=O` stands 3.45 µM; under `C=C1CC[C@@H]2[C@](C)(CNCc3cccs3)[C@H](O)CC[C@@]2(C)[C@@H]1/C=C/C1=CCOC1=O`, 1.07 µM.
With `C=C1CC[C@@H]2[C@](C)(CNCc3ccc4c(c3)CC=N4)[C@H](O)CC[C@@]2(C)[C@@H]1/C=C/C1=CCOC1=O`, the IC50 in data set [1] worked out at 0.55 µM.
For `C=C1CC[C@H]2[C@@](C)(CC[C@@H](O)[C@@]2(C)C(=O)NCCc2ccc(F)cc2)[C@@H]1/C=C/C1=CCOC1=O`, the IC50 in data set [1] was above 30 µM.
For the compound `C=C1CC[C@@H]2[C@](C)(CNCc3ccc(Cl)cc3)[C@H](O)CC[C@@]2(C)[C@@H]1/C=C/C1=CCOC1=O`, the IC50 in data set [1] is 0.42 µM.
With `C=C1CC[C@@H]2[C@](C)(CNCc3ccc([N+](=O)[O-])cc3)[C@H](O)CC[C@@]2(C)[C@@H]1/C=C/C1=CCOC1=O`, the IC50 in data set [1] was determined as 1.34 µM.
On the same count and under the same terms, the same measure for `C=C1CC[C@@H]2[C@](C)(CNCc3nccs3)[C@H](O)CC[C@@]2(C)[C@@H]1/C=C/C1=CCOC1=O`: 0.7 µM; for `C=C1CC[C@@H]2[C@](C)(CNCc3ccc(C#N)cc3)[C@H](O)CC[C@@]2(C)[C@@H]1/C=C/C1=CCOC1=O`: 1.13 µM.
The same measure, in the same setting: under `C=C1CC[C@H]2[C@@](C)(CC[C@@H](O)[C@@]2(C)C(=O)NCc2ccc(OC)cc2)[C@@H]1/C=C/C1=CCOC1=O` stands 6.53 µM; under `C=C1CC[C@@H]2[C@](C)(CNCCc3cccc(OC)c3)[C@H](O)CC[C@@]2(C)[C@@H]1/C=C/C1=CCOC1=O`, 5.45 µM.
For the compound `C=C1CC[C@@H]2[C@](C)(CO)[C@H](O)CC[C@@]2(C)[C@@H]1C/C=C(/C(=O)O)[C@H](O)CO`, the CC50 at 48 h in data set [2] is above 30 µM. Further, the IC50 in data set [1] is above 30 µM.
In the case of `C=C1CC[C@@H]2[C@](C)(CNCCc3cccs3)[C@H](O)CC[C@@]2(C)[C@@H]1/C=C/C1=CCOC1=O`, the IC50 in data set [1] came to 3.02 µM.
The same measure, in the same setting: the same measure for `C=C1CC[C@@H]2[C@](C)(CNCc3ccc(O)c(O)c3)[C@H](O)CC[C@@]2(C)[C@@H]1/C=C/C1=CCOC1=O`: 9.44 µM.
Same read-out and setting: under `C=C1CC[C@H]2[C@@](C)(CC[C@@H](O)[C@@]2(C)C(=O)NCCc2cccs2)[C@@H]1/C=C/C1=CCOC1=O` stands above 30 µM; under `C=C1CC[C@H]2[C@@](C)(CC[C@@H](O)[C@@]2(C)C(=O)NCCc2ccccc2)[C@@H]1/C=C/C1=CCOC1=O`, above 30 µM.
Same read-out and setting: the same measure for `C=C1CC[C@@H]2[C@](C)(CNCCc3ccc(OC)cc3)[C@H](O)CC[C@@]2(C)[C@@H]1/C=C/C1=CCOC1=O`: 1.88 µM; for `C=C1CC[C@@H]2[C@](C)(CNCc3ccc(OC)cc3)[C@H](O)CC[C@@]2(C)[C@@H]1/C=C/C1=CCOC1=O`: 0.75 µM.
Consider `C=C1CC[C@@H]2[C@](C)(CO)[C@H](O)CC[C@@]2(C)[C@@H]1CC=O`, for which, in data set [2], the CC50 at 48 h is above 30 µM. Besides, in data set [1], the IC50 was above 30 µM.
For `C=C1CC[C@@H]2[C@](C)(CNCCc3ccc(F)cc3)[C@H](O)CC[C@@]2(C)[C@@H]1/C=C/C1=CCOC1=O`, the IC50 in data set [1] turned out to be 0.48 µM.
With `C=C1CC[C@@H]2[C@](C)(CO)[C@H](O)CC[C@@]2(C)[C@@H]1CCC1C(=O)OC[C@H]1O` (stereo partly drawn), the CC50 at 48 h in data set [2] is above 30 µM. For the same compound, in data set [1], the IC50 was above 30 µM.
In the case of `C=C1CC[C@@H]2[C@](C)(CO)[C@H](O)CC[C@@]2(C)[C@@H]1C/C=C1/C(=O)OC[C@H]1O` [ANDROGRAPHOLIDE], the outcome in data set [3], in data set [4], in data set [5], in data set [6], in data set [7] and in data set [8] was Active. Moreover, the CC50 at 48 h in data set [2] was determined as 10.3 µM. For the same compound, the IC50 in data set [1] worked out at 1.01 µM.
Consider `C=C1CC[C@@H]2[C@](C)(CNCCc3ccccc3)[C@H](O)CC[C@@]2(C)[C@@H]1/C=C/C1=CCOC1=O`, for which the IC50 in data set [1] stood at 1.02 µM.
The same measure, in the same setting: under `C=C1CC[C@@H]2[C@](C)(CNCc3cccc(OC)c3)[C@H](O)CC[C@@]2(C)[C@@H]1/C=C/C1=CCOC1=O` stands 0.78 µM.
On the same count and under the same terms, under `NCCCC(O)(P(=O)(O)O)P(=O)(O)O` [ALENDRONATE SODIUM] stands 1.71 µM.
As to `C=C1CC[C@@H]2[C@](C)(CNCCc3ccc(C(F)(F)F)cc3)[C@H](O)CC[C@@]2(C)[C@@H]1/C=C/C1=CCOC1=O`, the IC50 in data set [1] was determined as 2.98 µM.

The values above are taken from ChEMBL document CHEMBL4819024, “Synthesis and evaluation of andrographolide derivatives as potent anti-osteoporosis agents in vitro and in vivo” (Eur J Med Chem, 2021).
